# Literature values in US20230165842A1, “NEW USES” (priority 2020, published 2023).
# Like-named read-outs stand apart in the source and are kept apart here.
# Key:
# [1] = test system: SARS-CoV-2; details: treated 24 hours prior to infection; read-out: IC50 in Vero
# [2] = test system: SARS-CoV-2; details: treated 24 hours prior to infection; read-out: IC50 in Calu-3
# [3] = test system: SARS-CoV-2; details: Vero E6; for IC50: 2 h pre-treatment, 24 h
# [4] = test system: SARS-CoV-2; details: virucidal activity; chlorphenamine maleate
# [5] = test system: Vero E6 cells
# [6] = test system: IL1β; details: curcumin group
# [7] = test system: IL6; details: curcumin group
# [8] = test system: IL-18 and TNF-α; details: before and after intervention
# [9] = test system: SARS-CoV-2; details: Calu-3
# [10] = test system: Calu-3 cells
# [11] = test system: critically ill patients with COVID-19; details: compared to placebo or usual care
# [12] = test system: SARS-CoV-2 Spike pseudotyped virus; details: ACE2h HEK293T cells; Control = 1
# [13] = target: ACE2 (Homo sapiens, UniProt Q9BYF1); details: cell membrane chromatography and surface plasmon resonance
# [14] = test system: SARS-CoV-2; details: pre-treated Vero-E6; MOI 0.01; 24 hours; p<0.001 vs DMSO
# [15] = test system: SARS-CoV-2; details: pre-treated A549^AcE2; MOI 0.01; 24 hours; p<0.001 vs DMSO
# [16] = test system: SARS-CoV-2-Wuhan-Hu-1; details: Vero C1008
# [17] = test system: Vero C1008
# [18] = test system: HCoV-OC43; details: Vero C1008; dose-dependent
# [19] = test system: SARS-CoV-2/USA/WI1/2020
# [20] = test system: SARS-CoV-2; details: Yang et al., 2020
# [21] = test system: SARS-CoV-2; details: Vero-E6
# [22] = test system: SARS-CoV-2; details: with increased concentrations; vs DMSO treated group
# [23] = test system: Vero-E6 cells; details: read-out: CC50 in
# [24] = test system: human coronavirus (HCoV)-229E; details: MRC5 cells
# [25] = test system: SARS-CoV-2; details: Vero E6; with reduced cytotoxicity
# [26] = test system: SARS-CoV-2; details: 10 μM; post-infection treatment; Vero E6; MOI 1
# ACE2, sequence (Q9BYF1 18-805): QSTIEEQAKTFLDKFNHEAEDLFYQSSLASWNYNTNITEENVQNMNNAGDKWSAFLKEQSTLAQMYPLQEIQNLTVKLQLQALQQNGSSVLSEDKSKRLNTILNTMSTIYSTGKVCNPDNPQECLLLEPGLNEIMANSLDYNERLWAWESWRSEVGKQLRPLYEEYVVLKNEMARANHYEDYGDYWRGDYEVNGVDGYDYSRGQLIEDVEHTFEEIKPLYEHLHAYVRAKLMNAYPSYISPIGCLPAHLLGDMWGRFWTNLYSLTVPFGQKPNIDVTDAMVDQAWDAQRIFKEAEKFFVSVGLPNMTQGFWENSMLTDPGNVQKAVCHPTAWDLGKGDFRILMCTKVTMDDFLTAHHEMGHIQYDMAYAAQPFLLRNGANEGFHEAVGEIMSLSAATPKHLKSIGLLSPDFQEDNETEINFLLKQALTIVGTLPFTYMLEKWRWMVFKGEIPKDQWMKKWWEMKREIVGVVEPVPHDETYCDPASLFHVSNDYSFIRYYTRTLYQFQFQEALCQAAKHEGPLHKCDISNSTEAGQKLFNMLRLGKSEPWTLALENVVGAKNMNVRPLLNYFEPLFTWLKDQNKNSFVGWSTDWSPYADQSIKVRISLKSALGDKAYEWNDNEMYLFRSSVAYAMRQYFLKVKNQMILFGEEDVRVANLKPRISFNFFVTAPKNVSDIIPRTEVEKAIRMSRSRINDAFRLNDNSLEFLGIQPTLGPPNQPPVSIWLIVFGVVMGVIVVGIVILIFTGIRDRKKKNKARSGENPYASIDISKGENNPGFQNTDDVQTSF
compound,measurement,setting,value
"CCCCCC(=O)O[C@]1(C(C)=O)CC[C@H]2[C@@H]3CCC4=CC(=O)CC[C@]4(C)[C@H]3CC[C@@]21C [Compound 2, 17-hydroxyprogesterone-caproate]",IC50,[1],6.3 µM
same,IC50,[2],3.87 µM
"CN(C)CCC(c1ccc(Cl)cc1)c1ccccn1 (stereo not drawn) [Compound 16, chlorphenamine]",Selectivity Index (SI),[3]; MOI 0.004,3.78
same,IC50,[3]; MOI 0.004,3.14 µM
same,Selectivity Index (SI),[3]; MOI 0.01,2.94
same,IC50,[3]; MOI 0.01,4.03 µM
same,reduction in the viral load,[4],99.7%
same,CC50,[5],11.9 µM
"COc1cc(/C=C/C(=O)CC(=O)/C=C/c2ccc(O)c(OC)c2)ccc1O [Compound 21, curcumin]","IL1β mRNA expression level, after",[6]; 160 mg daily for 14 days,0.56
same,"IL1β mRNA expression level, before",[6]; before intervention,1.01
same,"IL6 mRNA expression level, after",[7]; 160 mg daily for 14 days,0.58
same,"IL6 mRNA expression level, before",[7]; before intervention,0.98
same,expression level of IL-18 and TNF-α,[8],no statistically significant differences
"CCOC(=O)C1=C(C)NC(C)=C(C(=O)OC)C1c1cccc(Cl)c1Cl (stereo not drawn) [Compound 30, felodipine]",SI = CC50/EC50,[9],9784.86
same,CC50,[10],123 µM
"C[C@]12CCC(=O)C=C1CC[C@@H]1[C@@H]2[C@@H](O)C[C@@]2(C)[C@H]1CC[C@]2(O)C(=O)CO [Compound 32, hydrocortisone]",odds ratio (OR) of mortality,[11],"0.69 (95% CI, 0.43-1.12; P = .13)"
"CCOC(=O)N1CCC(=C2c3ccc(Cl)cc3CCc3cccnc32)CC1 [Compound 42, loratadine]",pseudotype entry (mean),[12],0.7
same,binding to ACE2,[13],could bind to ACE2
"CN1CCN(CCCN2c3ccccc3Sc3ccc(C(F)(F)F)cc32)CC1 [Compound 73, trifluoperazine]",SARS-COV-2 replication (vRNA levels),[14],successfully blocked
same,SARS-COV-2 replication (vRNA levels),[15],successfully blocked
"C[S+]([O-])CCCCN=C=S (stereo not drawn) [Compound 139, sulforaphane]",SARS-CoV-2-Wuhan-Hu-1 virus-associated cell death,[16]; dose-dependent,effectively inhibited
same,IC50,[16]; drug 1-2 hours before inoculation,12 µM
same,cytotoxic dose TD50,[17],73 to 89 µM
same,HCoV-OC43 virus-associated cell death,[18],effectively inhibited
same,protein concentration in the bronchoalveolar lavage (BAL),"[19]; SFN daily oral gavage from one day prior to inoculation, vs untreated infected controls, P<0.0001",significantly lower
same,"reduction in viral titers, alveolar fluid","[19]; vs untreated controls, P=0.04",1.15 log
same,reduction in viral lung titers,"[19]; vs untreated controls, normalized to PoI2Ra",1.5 log
"CC(CN1c2ccccc2Sc2ccccc21)N(C)C (stereo not drawn) [Compound 144, promethazine]",Selectivity Index (SI),[3]; MOI 0.004,4.62
same,IC50,[3]; MOI 0.004,9.21 µM
same,Selectivity Index (SI),[3]; MOI 0.01,4.08
same,IC50,[3]; MOI 0.01,10.4 µM
same,SARS-CoV-2 entry inhibition,[20],SARS-CoV-2 entry inhibitor
same,CC50,"[5]; Vero E6, listed as MOI 0.004",> 42.6 µM
same,CC50,"[5]; Vero E6, listed as MOI 0.01",> 42.6 µM
"Nc1ccn([C@@H]2O[C@H](CO)[C@@H](O)C2(F)F)c(=O)n1 [Compound 155, gemcitabine]",SI,[21],33
same,EC50,[21]; MOI 0.005,1.24 µM
same,positive cells in IFA,[22],significantly decreased positive cells
same,CC50,[23],> 40 µM
"Oc1ccc(C=Cc2cc(O)cc(O)c2)cc1 [Compound 192, resveratrol]",EC50,[24],4.6 µM
same,reduction of the viral titer,[24],80%
same,viral titer on SARS-CoV-2,[25],showed a reduction of the viral titer
calcitriol [Compound 142],reduction of SARS-CoV-2 titre,[26],1.3 log 10
